Columns and labels:
[1] = Antioxidant activity assessed as DPPH radical scavenging activity incubated for 15 to 20 mins by UV-visible spectrometry; assay type: functional
[2] = Antioxidant activity assessed as DPPH radical scavenging activity incubated for 15 to 20 mins by UV-visible spectrometry relative to untreated control; assay type: functional
Acetylcholinesterase [3] = biological target: T1, Acetylcholinesterase (Homo sapiens, UniProt P22303); test: Inhibition of AChE in erythrocytes (unknown origin) pre-incubated for 20 mins before acetylthiocholine substrate addition and measured over 30 mins by DTNB dye based spectrophotometry; assay type: cell-based
T1 sequence (P22303 whole entry): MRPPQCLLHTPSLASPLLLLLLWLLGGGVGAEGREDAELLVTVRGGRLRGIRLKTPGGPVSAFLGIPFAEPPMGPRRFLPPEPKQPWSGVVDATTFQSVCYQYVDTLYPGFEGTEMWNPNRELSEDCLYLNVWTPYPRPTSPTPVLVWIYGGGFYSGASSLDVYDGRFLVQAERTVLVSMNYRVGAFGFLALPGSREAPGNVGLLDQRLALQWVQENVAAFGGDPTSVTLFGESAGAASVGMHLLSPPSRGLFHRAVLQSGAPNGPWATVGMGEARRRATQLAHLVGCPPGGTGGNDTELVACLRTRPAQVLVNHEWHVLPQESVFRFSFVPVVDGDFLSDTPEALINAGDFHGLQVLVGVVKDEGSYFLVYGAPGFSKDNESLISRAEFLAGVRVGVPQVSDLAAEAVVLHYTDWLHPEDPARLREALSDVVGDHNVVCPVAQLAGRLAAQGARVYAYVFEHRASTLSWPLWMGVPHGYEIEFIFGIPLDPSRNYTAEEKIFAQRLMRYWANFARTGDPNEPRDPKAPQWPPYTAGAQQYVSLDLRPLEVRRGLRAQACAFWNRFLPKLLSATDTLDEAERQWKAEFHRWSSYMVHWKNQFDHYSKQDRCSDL

Acetylcholinesterase [4] = biological target: T1, Acetylcholinesterase; test: Inhibition of AChE in erythrocytes (unknown origin) pre-incubated for 20 mins before acetylthiocholine substrate addition and measured over 30 mins by DTNB dye based spectrophotometry relative to untreated control; assay type: cell-based

SMILES | IC50 [1] [nM] | inhibition [2] [%] | inhibition (Acetylcholinesterase [3]) | inhibition (Acetylcholinesterase [4]) [%] | IC50 (Acetylcholinesterase [3]) [nM]
c1ccc(-c2nnn3c2C2CCCCN2Cc2cc4c(cc2-3)OCO4)cc1 (stereo unspecified) | 94.8 | 92.3 | Dose-dependent effect | – | –
Cc1ccc(-c2nnn3c2C2c4ccccc4CCN2Cc2ccccc2-3)cc1 (stereo unspecified) | – | – | Dose-dependent effect | – | –
Cn1c(=O)c2c(ncn2C)n(C)c1=O | – | – | Dose-dependent effect | – | –
c1ccc(-c2nnn3c2C2c4ccccc4CCN2Cc2ccccc2-3)cc1 (stereo unspecified) | – | – | Dose-dependent effect | – | –
O=C1O[C@H]([C@@H](O)CO)C(O)=C1O [ASCORBIC ACID] | 1250 | 80.2 | – | – | –
Fc1ccc(-c2nnn3c2C2c4ccccc4CCN2Cc2ccccc2-3)cc1 (stereo unspecified) | – | – | Dose-dependent effect | – | –
Brc1ccc(-c2nnn3c2C2c4ccccc4CCN2Cc2ccccc2-3)cc1 (stereo unspecified) | 86.2 | 96.1 | Dose-dependent effect | < 95 | 250
c1ccc(-c2nnn3c2C2CCCN2Cc2cc4c(cc2-3)OCO4)cc1 (stereo unspecified) | – | – | Dose-dependent effect | – | –
c1ccc(-c2nnn3c2C2c4ccccc4CCN2Cc2cc4c(cc2-3)OCO4)cc1 (stereo unspecified) | – | – | Dose-dependent effect | – | –
